# Reference: patent US10899732B2, “Substituted benzamides useful as sodium channel blockers” (GENENTECH, INC., priority 2015, dated 2021)
# pIC50: −log10 of the molar value.
# Columns and labels:
# hNav1.7 = biological target: T1, hNav1.7 (Homo sapiens, UniProt Q15858); experiment: Tritiated sulfonamide competitive binding to membranes from cells expressing hNav1.7 and the β1 subunit (LBA); settings: competition with 100 pM [3H]compound, 18 h, room temperature; read-out: Nav1.7 (LBA)
# T1 construct: expressed in transfected cells
# Outline: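 Membranes from cells co-expressing hNav1.7 and β1 incubated 18 h at room temperature with 100 pM tritiated sulfonamide and test compound in 100 mM NaCl/20 mM Tris pH 7.4. Non-specific binding defined by 1 μM unlabelled compound; filter-bound radioactivity counted, IC50 from 4-parameter logistic fit.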
# NaV1.7 = biological target: T2, NaV1.7 (Homo sapiens, UniProt Q15858); experiment: Patch voltage clamp electrophysiology assay (EP), NaV1.7 in HEK-293 cells; assay type: cell-based; settings: HEK-293, β1 coexpressed, held at -60 mV (inactivated state)
# T2 construct: expression vector containing the full-length cDNA coding for the desired human sodium channel α-subunit; expressed in transfected cells; host or cells: HEK-293
# Outline: (§1)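 Whole-cell patch clamp at ambient temperature on HEK-293 cells stably expressing human NaV1.5 or NaV1.7 with β1 subunit; CsF internal pH 7.2, NaCl external pH 7.4. Held at −60 mV (full inactivation), 20 ms step to −150 mV, then test pulse; percent current decrease after compound wash-on taken as block.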
# NaV1.5 = biological target: T3, NaV1.5 (Homo sapiens, UniProt Q14524); experiment: Patch voltage clamp electrophysiology assay (EP), NaV1.5 in HEK-293 cells; assay type: cell-based; settings: human, pH 7.4; HEK-293, β1 coexpressed, held at -60 mV (inactivated state)
# T3 construct: expression vector containing the full-length cDNA coding for the desired human sodium channel α-subunit; expressed in transfected cells; host or cells: HEK-293
# Outline: as §1
# T2 sequence (Q15858 1-1977 isoform Q15858-3): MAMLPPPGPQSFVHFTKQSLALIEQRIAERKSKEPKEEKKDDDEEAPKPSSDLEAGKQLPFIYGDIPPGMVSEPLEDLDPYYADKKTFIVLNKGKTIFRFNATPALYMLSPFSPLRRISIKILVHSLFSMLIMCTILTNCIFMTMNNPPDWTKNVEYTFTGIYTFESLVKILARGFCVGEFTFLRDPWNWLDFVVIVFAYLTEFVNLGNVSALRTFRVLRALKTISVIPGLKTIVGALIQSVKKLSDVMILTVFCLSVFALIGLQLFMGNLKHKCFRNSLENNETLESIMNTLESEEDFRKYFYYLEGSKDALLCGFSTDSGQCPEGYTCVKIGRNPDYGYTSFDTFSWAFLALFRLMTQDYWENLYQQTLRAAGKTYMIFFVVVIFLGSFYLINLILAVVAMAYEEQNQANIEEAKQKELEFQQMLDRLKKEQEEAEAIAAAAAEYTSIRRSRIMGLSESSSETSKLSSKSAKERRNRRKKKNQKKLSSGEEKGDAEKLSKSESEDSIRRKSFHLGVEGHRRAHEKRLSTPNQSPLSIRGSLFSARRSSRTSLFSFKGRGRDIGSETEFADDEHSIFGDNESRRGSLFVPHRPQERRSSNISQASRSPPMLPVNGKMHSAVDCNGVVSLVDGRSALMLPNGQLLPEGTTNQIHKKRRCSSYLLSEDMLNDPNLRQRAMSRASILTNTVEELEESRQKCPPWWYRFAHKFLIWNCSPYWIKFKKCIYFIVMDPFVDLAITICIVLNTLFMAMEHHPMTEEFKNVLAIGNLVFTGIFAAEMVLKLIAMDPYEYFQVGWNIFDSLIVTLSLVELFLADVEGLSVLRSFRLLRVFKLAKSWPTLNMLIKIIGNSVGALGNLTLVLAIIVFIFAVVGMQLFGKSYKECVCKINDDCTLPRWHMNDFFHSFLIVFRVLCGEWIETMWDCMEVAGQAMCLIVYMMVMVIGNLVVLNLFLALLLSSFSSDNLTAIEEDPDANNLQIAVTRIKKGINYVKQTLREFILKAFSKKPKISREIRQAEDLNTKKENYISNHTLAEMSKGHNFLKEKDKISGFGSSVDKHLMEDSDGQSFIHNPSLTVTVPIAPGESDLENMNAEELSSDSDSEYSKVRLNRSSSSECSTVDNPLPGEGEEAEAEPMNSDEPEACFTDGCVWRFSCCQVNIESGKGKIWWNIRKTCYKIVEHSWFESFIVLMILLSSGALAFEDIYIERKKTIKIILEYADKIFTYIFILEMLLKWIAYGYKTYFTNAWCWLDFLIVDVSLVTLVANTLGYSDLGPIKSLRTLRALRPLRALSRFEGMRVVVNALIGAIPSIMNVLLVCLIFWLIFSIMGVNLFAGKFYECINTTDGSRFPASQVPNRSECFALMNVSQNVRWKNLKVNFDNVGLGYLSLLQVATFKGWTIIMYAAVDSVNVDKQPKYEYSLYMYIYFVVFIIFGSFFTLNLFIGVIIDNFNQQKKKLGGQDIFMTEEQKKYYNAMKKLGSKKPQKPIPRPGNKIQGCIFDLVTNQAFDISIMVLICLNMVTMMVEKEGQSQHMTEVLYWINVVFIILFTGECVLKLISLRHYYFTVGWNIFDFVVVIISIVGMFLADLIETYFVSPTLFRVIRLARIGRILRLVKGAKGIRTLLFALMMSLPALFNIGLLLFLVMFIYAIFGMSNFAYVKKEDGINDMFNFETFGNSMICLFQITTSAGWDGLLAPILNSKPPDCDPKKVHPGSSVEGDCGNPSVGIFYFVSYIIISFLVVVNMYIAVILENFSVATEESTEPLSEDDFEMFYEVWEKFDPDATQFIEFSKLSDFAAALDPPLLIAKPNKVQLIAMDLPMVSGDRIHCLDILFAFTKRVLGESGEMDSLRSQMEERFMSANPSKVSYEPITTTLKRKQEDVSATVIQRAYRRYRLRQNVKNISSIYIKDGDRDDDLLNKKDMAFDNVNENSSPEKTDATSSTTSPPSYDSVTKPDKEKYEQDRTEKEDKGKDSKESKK
# T2 sequence (Q07699 19-218 partner): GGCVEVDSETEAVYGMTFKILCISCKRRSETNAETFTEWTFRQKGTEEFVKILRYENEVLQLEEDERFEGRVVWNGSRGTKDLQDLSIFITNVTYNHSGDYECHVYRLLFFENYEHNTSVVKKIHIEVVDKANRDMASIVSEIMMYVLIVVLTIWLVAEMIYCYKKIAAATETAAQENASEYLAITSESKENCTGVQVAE
# T1 sequence (Q15858 1-1977 isoform Q15858-3): as the sequence (Q15858 1-1977 isoform Q15858-3) above
# T1 sequence (Q07699 19-218 partner): as the sequence (Q07699 19-218 partner) above
# T3 sequence (Q14524 whole entry): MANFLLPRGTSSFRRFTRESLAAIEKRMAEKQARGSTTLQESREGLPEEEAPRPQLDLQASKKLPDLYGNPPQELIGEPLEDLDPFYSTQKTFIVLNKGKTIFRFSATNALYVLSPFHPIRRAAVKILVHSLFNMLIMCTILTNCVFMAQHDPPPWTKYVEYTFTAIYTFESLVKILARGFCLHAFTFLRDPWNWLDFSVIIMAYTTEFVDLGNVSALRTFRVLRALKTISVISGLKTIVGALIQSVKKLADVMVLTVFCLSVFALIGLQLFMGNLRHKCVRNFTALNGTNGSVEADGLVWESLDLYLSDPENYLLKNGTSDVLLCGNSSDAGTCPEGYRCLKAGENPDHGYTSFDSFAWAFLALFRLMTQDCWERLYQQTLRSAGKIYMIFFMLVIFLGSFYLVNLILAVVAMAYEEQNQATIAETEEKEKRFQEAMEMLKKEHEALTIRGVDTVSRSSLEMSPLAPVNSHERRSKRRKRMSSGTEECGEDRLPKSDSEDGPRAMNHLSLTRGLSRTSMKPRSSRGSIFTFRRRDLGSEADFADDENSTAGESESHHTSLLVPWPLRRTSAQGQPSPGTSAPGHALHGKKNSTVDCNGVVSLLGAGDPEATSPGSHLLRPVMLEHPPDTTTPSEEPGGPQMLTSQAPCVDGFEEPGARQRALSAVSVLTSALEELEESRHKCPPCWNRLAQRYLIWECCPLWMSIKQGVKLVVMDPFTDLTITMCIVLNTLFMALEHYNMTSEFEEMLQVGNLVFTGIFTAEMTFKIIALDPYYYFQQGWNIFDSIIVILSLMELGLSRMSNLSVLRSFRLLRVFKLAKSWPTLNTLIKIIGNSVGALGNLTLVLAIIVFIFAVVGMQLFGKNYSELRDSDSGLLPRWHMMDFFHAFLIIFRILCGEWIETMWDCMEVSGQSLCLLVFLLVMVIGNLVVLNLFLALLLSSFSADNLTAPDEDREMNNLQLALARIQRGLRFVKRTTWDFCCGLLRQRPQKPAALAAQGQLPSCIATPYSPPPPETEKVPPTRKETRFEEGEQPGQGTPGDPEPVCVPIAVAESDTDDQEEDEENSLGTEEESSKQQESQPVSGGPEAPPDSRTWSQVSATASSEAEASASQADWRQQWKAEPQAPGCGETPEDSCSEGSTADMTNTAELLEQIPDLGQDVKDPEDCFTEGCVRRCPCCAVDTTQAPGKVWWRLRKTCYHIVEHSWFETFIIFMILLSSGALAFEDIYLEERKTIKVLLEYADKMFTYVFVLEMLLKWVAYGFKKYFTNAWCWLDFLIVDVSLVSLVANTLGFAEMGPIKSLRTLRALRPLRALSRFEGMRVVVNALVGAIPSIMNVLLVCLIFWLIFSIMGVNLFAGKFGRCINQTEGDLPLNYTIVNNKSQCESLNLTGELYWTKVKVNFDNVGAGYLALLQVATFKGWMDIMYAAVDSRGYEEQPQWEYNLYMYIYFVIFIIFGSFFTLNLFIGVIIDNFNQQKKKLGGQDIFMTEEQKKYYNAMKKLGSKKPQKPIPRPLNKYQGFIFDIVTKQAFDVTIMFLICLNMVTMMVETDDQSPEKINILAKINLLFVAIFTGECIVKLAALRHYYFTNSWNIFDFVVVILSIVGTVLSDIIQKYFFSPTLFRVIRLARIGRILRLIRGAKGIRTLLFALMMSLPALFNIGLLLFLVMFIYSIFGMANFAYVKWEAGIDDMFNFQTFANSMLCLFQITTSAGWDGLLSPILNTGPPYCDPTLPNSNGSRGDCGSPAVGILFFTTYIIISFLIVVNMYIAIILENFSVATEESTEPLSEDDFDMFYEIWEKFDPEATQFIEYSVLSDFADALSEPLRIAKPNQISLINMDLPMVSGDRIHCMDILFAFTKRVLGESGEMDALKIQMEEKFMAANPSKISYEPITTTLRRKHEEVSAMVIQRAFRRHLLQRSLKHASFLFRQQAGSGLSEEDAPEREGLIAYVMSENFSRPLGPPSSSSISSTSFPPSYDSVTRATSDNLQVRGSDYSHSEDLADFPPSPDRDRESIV
smiles,measurement,setting,value
"Cc1nn(-c2cnc(OCC(C)C)c(Cl)c2)c2cc(F)c(C(=O)NS(=O)(=O)N3CCC3)cc12 [Example 42, N-(azetidin-1-ylsulfonyl)-1-(5-chloro-6-isobutoxypyridin-3-yl)-6-fluoro-3-methyl-1H-indazole-5-carboxamide]",pIC50,hNav1.7,8.15
same,pIC50,NaV1.7,7.15
same,pIC50,NaV1.5,≤ 4.52
